Results as given in patent publication US5206029A, “Medicament and its production and use in the treatment of pain, inflammation and fever in man and animals” (PAZ Arzneimittel-Entwicklungsgesellschaft mbH, priority 1990, dated 1993).

Tests used:
cramp pain = cramp pain test in mice; assay type: in vivo, mouse; conditions: FIG. 1
Text: (§1) This unexpected result was verified by investigations in two animal models (mouse and rat).
(§2) FIGS. 1-4 are graphs of tests in rats for cramp pain, interleukin-1-inducedpain, prostaglandin production and carrageenin-induced paw oedema for the R(-) and S(+) enantiomers of flurbiprofen, […]

[1] = tested on: interleukin 1-induced pain; assay: interleukin 1-induced pain test in rats; assay type: in vivo, rat; conditions: FIG. 2
Text: as §1, §2

[2] = parameters: species or system mouse and rat; conditions: in vivo
Text: as §1

[3] = tested on: carrageenin-induced paw oedema; assay: carrageenin-induced paw oedema of the rat; assay type: in vivo, rat (male Sprague-Dawley); conditions: for oedema inhibition: 0.3 mg./kg. per os, paw volume after 3 hours p.a., FIG. 4
Procedure: To male Sprague-Dawley rats, each with a body weight of 120 to 150 g., were administered per os with a stomach probe the test substances (0.3 mg./kg. body weight). Immediately thereafter, into the left rear paw was injected subplantary 0.1 ml. of a.1% carrageenin solution in order to induce oedema. After 3 hours p.a., the paw volumes were determined by means of a plethysmometer (modified method according to Hofrichter).

gastro-intestinal mucosa = assay: gastrointestinal toxicity in the rat (gastric ulcer index, intestinal ulcer); assay type: in vivo
Procedure: Each of the test groups were sacrificed after 24 hours, the stomach and intestines were removed and the stomach opened and cleaned with salt solution. The number of ulcerations multiplied with the diameter thereof in mm. is given as the "gastric ulcer index". The unopened small intestine was investigated for white and brown color changes. The corresponding sections were cut out and the weight thereof in comparison with the total weight plotted in % as "intestinal ulcer". The results are significant in the t-test in comparison with the control.

[4] = tested on: macrophages (peritoneum of the mouse); assay: inhibition of prostaglandin liberation on macrophages (peritoneum of the mouse); assay type: cell-based
Procedure: Furthermore, contrary to the published state of knowledge (v. supra), S(+)-flurbiprofen in the case of administration after episiotomy is preferably effective antiphlogistically and not preferably analgesically. This further surprising test result was tested on two inflammation models selected independently of one another.

post-episiotomy pain = conditions: half dosage; A. Sunshine et al., Clin. Pharmacol Ther. 1987; cited from earlier work

| SMILES | analgesic effectiveness in the cramp pain test, R- versus S-enantiomer (cramp pain) | analgesic effectiveness in the interleukin 1-induced pain test, R- versus S-enantiomer [1] | inversion after administration [2] | oedema inhibition [3] [%] | toxicity on the gastrointestinal tract, compared with the racemate or the S(+)-enantiomer (gastro-intestinal mucosa; summary statement) | inhibition of the liberation of prostaglandin, compared with the R(-)-form [4] | inflammation-inhibiting action in carrageenin paw oedema, compared with the R(-)-form ([3]; rat, FIGS. 3 and 4) | damage of the gastro-intestinal mucosa (gastro-intestinal mucosa; rat, in vivo) | analgesic effectiveness compared with the racemate (post-episiotomy pain) |
| --- | --- | --- | --- | --- | --- | --- | --- | --- | --- |
| C[C@@H](C(=O)O)c1ccc(-c2ccccc2)c(F)c1 [R(-)-flurbiprofen] | equal or even more effective by about one third to a half | equal or even more effective by about one third to a half | no or only a very small inversion | 18 | lower grade toxicity on the gastrointestinal tract than the racemate or the S(+)-enantiomer | – | – | – | – |
| C[C@H](C(=O)O)c1ccc(-c2ccccc2)c(F)c1 [S(+)-flurbiprofen] | – | – | no or only a very small inversion | 64 | – | inhibits the liberation of prostaglandin more markedly than the R(-)-form | superior in its inflammation-inhibiting action to the R(-)-form | only S(+)-flurbiprofen caused damage | already more effective at half dosage |
